Among the data in US9458153B2, “Dihydroquinolizinones for the treatment and prophylaxis of hepatitis B virus infection” (Hoffmann-La Roche Inc., priority 2014, dated 2016) are IC50 values, retold here.

As usually defined, the IC50 is the concentration needed to halve the response being measured.

One test concerns HBsAg. In words: HBsAg assay (chemiluminescence immunoassay of secreted HBsAg in HepG2.2.15 culture supernatant). Format: cell-based, HBV. Conditions: HBsAg secretion reduced by 50% vs no drug control; HepG2.2.15 cells; CLIA kit. In outline:
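HepG2.2.15 cells, which constitutively express HBV, were seeded in duplicate and treated with three-fold serial compound dilutions at 1% DMSO final. Secreted HBsAg in culture supernatant was measured semi-quantitatively by chemiluminescence immunoassay. IC50 was extrapolated from dose-response curves.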
`CCC1Cc2cc(OCC(C)(C)CO)c(OC)cc2-c2cc(=O)c(C(=O)O)cn21` (stereo not shown) [Example 22, 6-ethyl-9-(3-hydroxy-2,2-dimethyl-propoxy)-10-methoxy-2-oxo-6,7-dihydrobenzo[a]quinolizine-3-carboxylic acid]: the 50% inhibitory concentration (IC50) worked out at 39 nM. In other words, the double-digit nanomolar range.

Molecule `CCC1Cc2cc(OCCOC)c(OC)cc2-c2cc(=O)c(C(=O)O)cn21` (stereo not shown) [Example 27, 6-ethyl-10-methoxy-9-(2-methoxyethoxy)-2-oxo-6,7-dihydrobenzo[a]quinolizine-3-carboxylic acid] registered an IC50 of 56 nM.

The molecule `CCOc1cc2c(cc1OC)-c1cc(=O)c(C(=O)O)cn1C(CC)C2` (stereo not shown) [Example 36, 9-ethoxy-6-ethyl-10-methoxy-2-oxo-6,7-dihydrobenzo[a]quinolizine-3-carboxylic acid] yielded an IC50 of 53 nM. The IC50 values of the last two molecules are within 1.5-fold of each other.

The molecule `CCC1Cc2cc(OCCCOC)c(OC)cc2-c2cc(=O)c(C(=O)O)cn21` (stereo not shown) [Example 39, 6-ethyl-10-methoxy-9-(3-methoxypropoxy)-2-oxo-6,7-dihydrobenzo[a]quinolizine-3-carboxylic acid] had an IC50 of 16 nM.

`CCOCCOc1cc2c(cc1OC)-c1cc(=O)c(C(=O)O)cn1C(CC)C2` (stereo not shown) [Example 42, 9-(2-ethoxyethoxy)-6-ethyl-10-methoxy-2-oxo-6,7-dihydrobenzo[a]quinolizine-3-carboxylic acid] yielded an IC50 of 57 nM.

Regarding `CCC1Cc2cc(OCC(F)F)c(OC)cc2-c2cc(=O)c(C(=O)O)cn21` (stereo not shown) [Example 45, 9-(2,2-difluoroethoxy)-6-ethyl-10-methoxy-2-oxo-6,7-dihydrobenzo[a]quinolizine-3-carboxylic acid], half-maximal inhibition (IC50) required 104 nM. This IC50 is about 1.8-fold higher than that of the molecule before.

The molecule `CCC1Cc2cc(OCC3CCOCC3)c(OC)cc2-c2cc(=O)c(C(=O)O)cn21` (stereo not shown) [Example 48, 6-ethyl-10-methoxy-2-oxo-9-(tetrahydropyran-4-ylmethoxy)-6,7-dihydrobenzo[a]quinolizine-3-carboxylic acid] came in with an IC50 of 24 nM.

Take `COc1cc2c(cc1OC)-c1cc(=O)c(C(=O)O)cn1C(C)C2` (stereo not shown) [Example 66, 9,10-dimethoxy-6-methyl-2-oxo-6,7-dihydrobenzo[a]quinolizine-3-carboxylic acid]: the IC50 was 430 nM.

As to `CCC1Cc2cc(OC)c(C3CC3)cc2-c2cc(=O)c(C(=O)O)cn21` (stereo not shown) [Example 89, 10-cyclopropyl-6-ethyl-9-methoxy-2-oxo-6,7-dihydrobenzo[a]quinolizine-3-carboxylic acid], the midpoint of inhibition, the IC50, lay at 8 nM.

Still in this test, the particulars now being: Hepatitis B virus, HepG2.2.15, HBsAg secretion reduced by 50% vs no drug control; HepG2.2.15 cells; CLIA kit.
Turning to `CCC1Cc2cc(OCCCO)c(OC)cc2-c2cc(=O)c(C(=O)O)cn21` (stereo not shown) [Example 25, 6-ethyl-9-(3-hydroxypropoxy)-10-methoxy-2-oxo-6,7-dihydrobenzo[a]quinolizine-3-carboxylic acid], the IC50 was 155 nM.

In the case of `CCC1Cc2cc(OCCn3ccnc3)c(OC)cc2-c2cc(=O)c(C(=O)O)cn21` (stereo not shown) [Example 26, 6-ethyl-9-(2-imidazol-1-ylethoxy)-10-methoxy-2-oxo-6,7-dihydrobenzo[a]quinolizine-3-carboxylic acid], the midpoint of inhibition, the IC50, lay at 1650 nM.

Regarding `CCC1Cc2cc(OCCN3CCCC3)c(OC)cc2-c2cc(=O)c(C(=O)O)cn21` (stereo not shown) [Example 51, 6-ethyl-10-methoxy-2-oxo-9-(2-pyrrolidin-1-ylethoxy)-6,7-dihydrobenzo[a]quinolizine-3-carboxylic acid], the IC50 is 3900 nM.

In turn, `CCC1Cc2cc(OCCCC#N)c(OC)cc2-c2cc(=O)c(C(=O)O)cn21` (stereo not shown) [Example 52, 9-(3-cyanopropoxy)-6-ethyl-10-methoxy-2-oxo-6,7-dihydrobenzo[a]quinolizine-3-carboxylic acid] had an IC50 of 170 nM. This IC50 is about 23-fold lower than that of the molecule before.

Molecule `CCC1Cc2cc(OCCS(C)(=O)=O)c(OC)cc2-c2cc(=O)c(C(=O)O)cn21` (stereo not shown) [Example 53, 6-ethyl-10-methoxy-9-(2-methylsulfonylethoxy)-2-oxo-6,7-dihydrobenzo[a]quinolizine-3-carboxylic acid] returned an IC50 of 1540 nM. Against the preceding molecule, the IC50 is about 9.1-fold higher.

`CCC1Cc2cc(OCCN3CCCC3=O)c(OC)cc2-c2cc(=O)c(C(=O)O)cn21` (stereo not shown) [Example 54, 6-ethyl-10-methoxy-2-oxo-9-[2-(2-oxopyrrolidin-1-yl)ethoxy]-6,7-dihydrobenzo[a]quinolizine-3-carboxylic acid] returned an IC50 of 130 nM. This IC50 is about 12-fold lower than that of the molecule before.

Turning to `CC[C@@H]1Cc2cc(OCCN3CCCC3=O)c(OC)cc2-c2cc(=O)c(C(=O)O)cn21` [Example 55, (+)-6-ethyl-10-methoxy-2-oxo-9-[2-(2-oxopyrrolidin-1-yl)ethoxy]-6,7-dihydrobenzo[a]quinolizine-3-carboxylic acid], half-maximal inhibition (IC50) required 720 nM. This IC50 lies about 5.5-fold higher than the previous one.

On to `CCC1Cc2cc(OCCNS(C)(=O)=O)c(OC)cc2-c2cc(=O)c(C(=O)O)cn21` (stereo not shown) [Example 56, 6-ethyl-9-[2-(methanesulfonamido)ethoxy]-10-methoxy-2-oxo-6,7-dihydrobenzo[a]quinolizine-3-carboxylic acid], for which the IC50 came out at 3300 nM.

Turning to `CCC1Cc2cc(OCC3(C#N)CC3)c(OC)cc2-c2cc(=O)c(C(=O)O)cn21` (stereo not shown) [Example 57, 9-[(1-cyanocyclopropyl)methoxy]-6-ethyl-10-methoxy-2-oxo-6,7-dihydrobenzo[a]quinolizine-3-carboxylic acid], the IC50 turned out to be 170 nM.

Consider `CC1Cc2cccc(Br)c2-c2cc(=O)c(C(=O)O)cn21` (stereo not shown) [Example 60, 11-bromo-6-methyl-2-oxo-6,7-dihydrobenzo[a]quinolizine-3-carboxylic acid], for which the IC50 is 1240 nM. This IC50 is about 7.3-fold higher than that of the molecule before.

Take `C[C@@H]1Cc2cc(Br)ccc2-c2cc(=O)c(C(=O)O)cn21` [Example 61, (+)-9-bromo-6-methyl-2-oxo-6,7-dihydrobenzo[a]quinolizine-3-carboxylic acid]: the IC50 came out at 6020 nM.

In turn, `CC1Cc2cc(N3CCN(C(=O)OC(C)(C)C)CC3)ccc2-c2cc(=O)c(C(=O)O)cn21` (stereo not shown) [Example 62, 9-(4-tert-butoxycarbonylpiperazin-1-yl)-6-methyl-2-oxo-6,7-dihydrobenzo[a]quinolizine-3-carboxylic acid] gave an IC50 of 990 nM.

Molecule `CC1Cc2cc(N(C)Cc3ccccc3)ccc2-c2cc(=O)c(C(=O)O)cn21` (stereo not shown) [Example 63, 9-[benzyl(methyl)amino]-6-methyl-2-oxo-6,7-dihydrobenzo[a]quinolizine-3-carboxylic acid] had an IC50 of 7180 nM.

`CNc1cccc2c1-c1cc(=O)c(C(=O)O)cn1C(C)C2` (stereo not shown) [Example 64, 6-methyl-11-(methylamino)-2-oxo-6,7-dihydrobenzo[a]quinolizine-3-carboxylic acid] showed an IC50 of 24900 nM.

In turn, `COc1cc2c(cc1Cl)-c1cc(=O)c(C(=O)O)cn1C(C)C2` (stereo not shown) [Example 65, 10-chloro-9-methoxy-6-methyl-2-oxo-6,7-dihydrobenzo[a]quinolizine-3-carboxylic acid] registered an IC50 of 320 nM.

In turn, `COc1cc2c(cc1OC)C(C)Cn1cc(C(=O)O)c(=O)cc1-2` (stereo not shown) [Example 69, 9,10-dimethoxy-7-methyl-2-oxo-6,7-dihydrobenzo[a]quinolizine-3-carboxylic acid] yielded an IC50 of 1300 nM. This IC50 lies about 4.1-fold higher than the previous one.

`CCC1Cc2cc(OC)c(OC)cc2-c2cc(=O)c(C(=O)O)cn21` (stereo not shown) [Example 70, 6-ethyl-9,10-dimethoxy-2-oxo-6,7-dihydrobenzo[a]quinolizine-3-carboxylic acid] showed an IC50 of 70 nM.

`CC[C@@H]1Cc2cc(OC)c(OC)cc2-c2cc(=O)c(C(=O)O)cn21` [Example 71, (6R)-(+)-6-ethyl-9,10-dimethoxy-2-oxo-6,7-dihydrobenzo[a]quinolizine-3-carboxylic acid] came in with an IC50 of 37 nM.

Turning to `CC[C@H]1Cc2cc(OC)c(OC)cc2-c2cc(=O)c(C(=O)O)cn21` [Example 72, (6S)-(−)-6-ethyl-9,10-dimethoxy-2-oxo-6,7-dihydrobenzo[a]quinolizine-3-carboxylic acid], half-maximal inhibition (IC50) was put at 12000 nM.

Consider `COc1cc2c(cc1C)-c1cc(=O)c(C(=O)O)cn1C(C)C2` (stereo not shown) [Example 73, 9-methoxy-6,10-dimethyl-2-oxo-6,7-dihydrobenzo[a]quinolizine-3-carboxylic acid], for which half-maximal inhibition (IC50) required 140 nM.

In turn, `CCOc1cc2c(cc1OCC)-c1cc(=O)c(C(=O)O)cn1C(C)C2` (stereo not shown) [Example 74, 9,10-diethoxy-6-methyl-2-oxo-6,7-dihydrobenzo[a]quinolizine-3-carboxylic acid] returned an IC50 of 140 nM.

Molecule `CCOc1cc2c(cc1O)-c1cc(=O)c(C(=O)O)cn1C(C)C2` (stereo not shown) [Example 75, 9-ethoxy-6-methyl-10-hydroxy-2-oxo-6,7-dihydrobenzo[a]quinolizine-3-carboxylic acid] had an IC50 of 1110 nM.

Molecule `CCCOc1cc2c(cc1OCCC)-c1cc(=O)c(C(=O)O)cn1CC2` [Example 77, 2-oxo-9,10-dipropoxy-6,7-dihydrobenzo[a]quinolizine-3-carboxylic acid] showed an IC50 of 830 nM. This IC50 and that of the molecule before are within 1.5-fold of each other.

`CCCc1cc2c(cc1OC)-c1cc(=O)c(C(=O)O)cn1C(CC)C2` (stereo not shown) [Example 81, 6-ethyl-10-methoxy-2-oxo-9-propyl-6,7-dihydrobenzo[a]quinolizine-3-carboxylic acid] had an IC50 of 330 nM. This IC50 is about 2.5-fold lower than that of the molecule before.

Turning to `COc1ccc2c(c1Cl)CC(C)n1cc(C(=O)O)c(=O)cc1-2` (stereo not shown) [Example 82, 8-chloro-9-methoxy-6-methyl-2-oxo-6,7-dihydrobenzo[a]quinolizine-3-carboxylic acid], half-maximal inhibition (IC50) was put at 5270 nM.

`COc1cc2c(c(Cl)c1OC)CC(C)n1cc(C(=O)O)c(=O)cc1-2` (stereo not shown) [Example 83, 8-chloro-9,10-dimethoxy-6-methyl-2-oxo-6,7-dihydrobenzo[a]quinolizine-3-carboxylic acid] had an IC50 of 5600 nM.

Regarding `CCCOc1cc2c(cc1OC)CC(C)n1cc(C(=O)O)c(=O)cc1-2` (stereo not shown) [Example 87, 9-methoxy-6-methyl-2-oxo-10-propoxy-6,7-dihydrobenzo[a]quinolizine-3-carboxylic acid], the half-maximal inhibitory concentration (IC50) came to 1550 nM.

In the case of `CCc1cc2c(cc1OC)CC(CC)n1cc(C(=O)O)c(=O)cc1-2` (stereo not shown) [Example 88, 6,10-diethyl-9-methoxy-2-oxo-6,7-dihydrobenzo[a]quinolizine-3-carboxylic acid], the midpoint of inhibition, the IC50, lay at 20 nM.
